{"source": "patent US11247993B2", "about": "“Pyridone derivative, composition and use as antiviral drug thereof” (priority 2018, dated 2022)", "key": {"[1]": {"tested_on": "influenza virus A/PR/8/34 (H1N1)", "assay": "organism not typed", "format": "cell-based", "settings": "MDCK cells, A/PR/8/34 (H1N1), 5 days, CCK8; read-out: EC50"}, "[2]": {"tested_on": "MDCK cells", "assay": "in vitro", "format": "cell-based", "description": "Method for cytotoxicity study: The cytotoxicity assay and antiviral activity assay of the compounds were performed in parallel, except for the absence of virus, other experimental conditions were consistent with the antiviral activity assay. After 5 days of culture, the cell viability was measured using the cell viability detection kit CCK8. Raw data were used for calculating compound cytotoxicity (CC50) (see Table 1 for results)."}}, "data": [{"compound": "O=C1c2c(O)c(=O)ccn2N([C@@H]2c3ccccc3SCc3c2ccc(F)c3F)[C@@H]2COCCN12", "note": "[Baloxavir acid, reference compound]", "values": [{"measurement": "EC50", "setting": "[1]", "result": 1.4, "unit": "nM"}, {"measurement": "CC50", "setting": "[2]", "result": "> 1000", "unit": "nM"}]}]}
